Earlier results, collected in patent US20260204362A1, “METHOD FOR DETERMINING A TARGET […] COMPOUND COMPRISING A TARGET BIODEGRADABILITY” (BASF SE, priority 2022, published 2026).

Conditions: known values for test molecules from the NITE database; OECD 301 (A-F) test setups, measurement uncertainty ca. 10%

Compared with `BrCCCCBr` [BrCCCCBr], `CCCCN(CCCC)C(=S)[S][Ni][S]C(=S)N(CCCC)CCCC` [CCCCN(CCCC)C(═S)S[Ni]SC(═S)N(CCCC)CCCC] is lower in “Biodegradability (data) in %” value: 17% for the first, 3% for the second.

Going from `CCC(CC)C(=O)OCCOCCOCCOC(=O)C(CC)CC` [CCC(CC)C(═O)OCCOCCOCCOC(═O)C(CC)CC] to `CNCCS(=O)(=O)O` [CNCCS(═O)(═O)O], the “Biodegradability (data) in %” value falls from 81% to 62%.

For `OCC=CCO` [OCC═CCO], the “Biodegradability (data) in %” value is given as 57%.
